This is an account of results in patent US6087493A, “Porphyrin compounds as telomerase inhibitors” (Regents of the University of Texas System, priority 1998, dated 2000).

Like-named read-outs stand apart in the source and are kept apart here.

For data set [1], the system named is DNA quadruplex in single-stranded template with four telomeric repeats. Put plainly: DNA synthesis arrest assay (Taq DNA polymerase). Type of data set: biochemical. Here is the method:
This assay was a modification of that described by Weitzmann et al. (Wang and Patel, 1993). Briefly, primers (24 nM) labeled with [γ-^32 P] ATP were mixed with template DNA PQ74 (12 nM) in a Tris-HCl buffer (10 mM Tris, pH 8.0) containing 10 mM MgCl2 and heated at 90° C. for 4 min. After cooling at room temperature for 15 min, spermidine (to give 100 μM) and TMPyP4 (to give the concentrations indicated in the figure) were added. The primer extension reactions were initiated by adding dNTP (final concentration 100 μM) and Taq DNA polymerase (2.5 U/reaction, Boehringer Mannheim). The reactions were incubated at 55 C. (or otherwise as indicated) for 15 min, then stopped by adding an equal volume of stop buffer (95% formamide, 10 mM EDTA, 10 mM NaOH, 0.1% xylene cyanol, 0.1% bromophenol blue). The products were separated on a 12% polyacrylamide sequencing gel.
A single-stranded DNA template, which included four telomeric repeats, was taken, and an 18-base primer complementary to the […] was extended using Taq DNA polymerase.

A further data set deals with sea urchin embryos. Here is the method:
Lytechinus pictus sea urchins were purchased from Marinus Inc. (Long Beach, Calif.) and maintained at 15° C. in refrigerated aquaria containing Instant Ocean synthetic sea water, following a described procedure [Vafa, 1996 #300]. For polyspermic fertilization, 0.01 vol freshly prepared stock sperm suspension (25 ml ASW containing 2 ml undiluted semen) was added to the eggs suspended for 10 min at 1% concentration in ASW adjusted to pH 9.0 with NH4 OH and stirred at 60 rpm with motor-driven Teflon paddles. Ten min after insemination, the fertilized eggs were allowed to settle, and the supernatant ASW containing sperm was aspirated and replaced with fresh ASW. The embryos were cultured at 18° C. Twenty min after fertilization TMPyP4 or TMPyP4.Pt^II (100 μM final concentration) was added from a concentrated stock in DMSO to 1% embryo suspensions. Equivalent amounts of DMSO (final 0.1%) were added to control egg suspensions. At measured times after insemination, the embryos were pelleted by centrifugation and resuspended in Carnoy's fixative (ethanol:acetic acid, 3:1) for at least 1 hr. After fixation the embryos were pelleted and resuspended successively in: (1) ethanol:acetic acid, 1:1 for 5-15 min: (2) 45% acetic acid for 5-15 min; (3) room temperature 1 N HCl for 1-2 min: (4) 60° C. 1 N HCl for 7-8 min; (5) room temperature 1 N HCl for 1-2 min; (6) Schiffs reagent for 90-120 min; and (7) 45% acetic acid before affixing the embryos to microscope slides. Embryo samples were placed on microscope slides, covered with coverslips, and frozen on a bed of dry ice. After at least 30 min, the coverslips were popped off using a razor blade and the slides were immediately plunged into Coplin jars containing 95% ethanol for 5-10 min. The slides were then transferred to Coplin jars containing 100% ethanol for 3-5 min. After removing the slides and allowing them to air dry, the embryos were mounted with one drop Permount (Fisher) under a coverglass.
The inventors examined whether treatment of the embryos with G-quadroplex interactive agents can cause observable chromosomal abnormalities. A time course of the embryo development was followed in the presence of 10 μM and 100 μM concentrations of TMPyP4 or TMPyP4.Pt^II.

For data set [2], the system named is cultured human dermal fibroblasts. As to conditions: Georgiou et al., 1994, cited from earlier work.
Another data set addresses human telomerase (Homo sapiens, UniProt O14746). The experiment in a line: Telomerase inhibition, primer extension assay in HeLa cell extract. It is filed as biochemical.
The test system of the next data set is HeLa. The experiment in a line: cells. Type of data set: cell-based, human. As to conditions: Homo sapiens; HeLa, MTT (n = 3 ± SEM); read-out: Cytotoxicity.
Another data set relates to LNCap. The experiment in a line: Cytotoxicity (MTT) LNCap. It is filed as cell-based, human. The conditions noted are these: Homo sapiens; LNCap (prostate), 4-7 days; read-out: IC 50 cytotoxicity. Here is the method: (§1) The cells were cultured in the presence of the porphyrins incubator for 4-7 days and then treated with 3-(4,5-dimethylthiazol-2-yl)-2,5-diphenyl-tetrazolium bromide (MTT). Formazan concentration was quantitated by absorbance at 570 nm.

A further data set has as its system Raji. Put plainly: Cytotoxicity (MTT) Raji. It is filed as cell-based, human. As to conditions: Homo sapiens; Raji (lymphoma), 4-7 days; read-out: IC 50 cytotoxicity. How it is done:
as §1

In data set [3] the test system is telomere length in MCF7 cells. The experiment in a line: Telomere length analysis in MCF7 cells. It is filed as cell-based, human. As to conditions: 1 and 10 μM, by day 8 (about 6 population doublings). Here is the method:
DNA was extracted from a minimum of 5×10^6 cells by SDS, proteinase K treatment, then purified and quantitated as previously described (Strahl and Blackburn, 1991). Approximately 1 μg of total DNA was digested with Mse I; the digested DNA was size fractionated by agarose gel electrophoresis and Southern blotted. The blots were hybridized with a ^32 P-labeled 0.5 kb PCR™ DNA fragments composed of the telomere repeat d(TTAGGG), which served as a probe for the telomeres. The hybridized probe was detected by autoradiography and each lane on the film was analyzed by phosphoimage analysis (Molecular Dynamics).
Telomeres shorten at an average rate of 65-100 base pairs per cell division (Counter et al., 1992). To observe a significant effect of an agent on telomere length, e.g., shortening the telomeres by >1 kilobase in MCF7 cells (5.7 kbases), a minimum of […] population doubling times will be required.

Another data set deals with PC3. The experiment in a line: Cytotoxicity (MTT) PC3. It is filed as cell-based, human. The conditions noted are these: Homo sapiens, PC-3; PC3 (prostate), 4-7 days; read-out: IC 50 cytotoxicity. Here is the method: as §1

Sequence of human telomerase (O14746 whole entry): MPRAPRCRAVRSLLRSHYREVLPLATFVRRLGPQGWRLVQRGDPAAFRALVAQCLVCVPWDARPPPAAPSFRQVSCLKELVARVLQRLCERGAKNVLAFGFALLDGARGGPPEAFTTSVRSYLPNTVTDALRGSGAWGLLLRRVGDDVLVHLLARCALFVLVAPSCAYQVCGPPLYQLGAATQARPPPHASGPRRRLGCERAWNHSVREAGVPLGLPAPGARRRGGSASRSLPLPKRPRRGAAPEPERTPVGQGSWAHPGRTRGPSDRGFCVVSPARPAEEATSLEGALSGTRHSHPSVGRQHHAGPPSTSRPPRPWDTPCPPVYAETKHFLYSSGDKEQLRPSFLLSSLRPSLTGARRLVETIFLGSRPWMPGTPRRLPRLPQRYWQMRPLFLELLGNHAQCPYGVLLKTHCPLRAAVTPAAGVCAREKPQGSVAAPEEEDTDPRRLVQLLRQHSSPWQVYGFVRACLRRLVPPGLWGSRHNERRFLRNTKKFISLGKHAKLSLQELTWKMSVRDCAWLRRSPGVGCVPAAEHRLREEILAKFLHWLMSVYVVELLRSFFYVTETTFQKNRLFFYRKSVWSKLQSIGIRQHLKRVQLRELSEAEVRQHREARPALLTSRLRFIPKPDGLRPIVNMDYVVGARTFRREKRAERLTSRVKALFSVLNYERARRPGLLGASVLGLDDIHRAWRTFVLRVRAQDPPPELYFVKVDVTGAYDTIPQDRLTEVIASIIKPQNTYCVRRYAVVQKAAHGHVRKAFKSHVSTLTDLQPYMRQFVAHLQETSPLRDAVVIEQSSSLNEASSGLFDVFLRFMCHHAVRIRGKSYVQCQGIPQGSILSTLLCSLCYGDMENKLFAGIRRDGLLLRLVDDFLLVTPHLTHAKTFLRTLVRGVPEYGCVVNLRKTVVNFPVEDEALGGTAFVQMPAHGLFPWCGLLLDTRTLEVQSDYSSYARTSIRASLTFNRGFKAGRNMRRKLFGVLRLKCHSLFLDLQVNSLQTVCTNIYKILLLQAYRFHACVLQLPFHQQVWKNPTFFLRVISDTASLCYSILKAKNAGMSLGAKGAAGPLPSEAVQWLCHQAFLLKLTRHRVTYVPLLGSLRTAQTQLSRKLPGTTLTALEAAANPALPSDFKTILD

For `C[n+]1ccc(-c2c3nc(c(-c4cc[n+](C)cc4)c4ccc([nH]4)c(-c4cc[n+](C)cc4)c4nc(c(-c5cc[n+](C)cc5)c5ccc2[nH]5)C=C4)C=C3)cc1` [TMPyP4, 5,10,15,20-tetra-(N-methyl-4-pyridyl)porphine], in data set [1], the “melting temperature of the quadruplex” value is reported as “increased the melting temperature of the quadruplex”. The “pause site band intensity” value in [1] (Tris buffer without K+ or Na+) is reported as “more intense in a concentration-dependent manner”. In addition, the “persistence of bands at the pause site” value in data set [1] (temperature dependence) is “up to 65 °C”. Also, in the data set on sea urchin embryos (10 μM, 150 min after fertilization), the “differences from controls in embryos” value was “no definitive differences were seen”. Besides, the “condensed chromosome length / chromosomal effects” value in the data set on sea urchin embryos (100 μM) was “condensed chromosomes were longer than in the untreated controls”. The “proliferation and mitosis in embryos” value in the data set with sea urchin embryos (in vivo) was “significantly decreases proliferative rates in the developing embryos and increases the percent of the cell in mitosis”. In addition, the toxicity to embryos result in the data set on sea urchin embryos (in vivo) was “generally non-toxic to the embryos”. The “cell number and morphology of embryos” value in the data set on sea urchin embryos (later time points) is “fewer cells, many very misshapen and variable in size relative to the controls”. Moreover, in the data set with sea urchin embryos (treated embryos), the “first signs of ciliary motility” value stood at 9 h. Besides, the “uptake / nuclear accumulation” value was “rapidly accumulate (within min) in the nuclei of cultured human dermal fibroblasts” in [2]; “taken up by cells and localized in organelles known to contain DNA” in data set [2] (listed as tetra(N-methyl-4-pyridyl)porphyrin). Further, the “% Inhibition of telomerase” value on human telomerase (25 µM) was found to be 60%. In addition, the IC50 against human telomerase (IC50 telomerase) turned out to be 6.5 ± 1.4 µM; at human telomerase (IC50 telomerase (text)), 6.5 ± 1.4 µM; at human telomerase (Telomerase Inhibition), 15 µM; in the data set with HeLa, 18.7 ± 3.89 µM; in the data set on LNCap it was 22.8 µM; with Raji, 11.9 µM. For the same compound, the IC50 with PC3 came out at 184 µM. For the same compound, the inhibition at 25 µM on human telomerase (read-out: amount of inhibition of telomerase) came to 72%. For the same compound, in [3], the “effect on telomere shortening” value is “No detectable effects on telomere shortening”.

The inhibition is the change of the read-out against control, counted positive when it falls.
